Reference: the OPERA property sets (Mansouri et al. 2018)
In brackets after ≈: the same amount, converted by molar mass. Where a SMILES comes first, the peptide text is derived from it. The star is where a group is joined. NHtBu = CC(C)(C)N*

Details: not given

SMILES	logP	solubility
CCCn1ccc(=O)c(O)c1	-0.17	
CC(=O)OCn1cc2c(=O)n(COC(C)=O)cnc2n1	-0.2	
CNS(=O)(=O)Cc1ccc2[nH]cc(CCN(C)C)c2c1	0.93	
CC1=CC(=O)C(C)=C(C)C1=O	1.82	
CCn1cc(C(=O)O)c(=O)c2cc(F)c(N3CCNC(C)C3)c(F)c21 (stereo unspecified)	-0.3	
CN(C)P1(=O)N(C)CCN1C	0.02	
CCCCC(OC(Cc1ccccc1)C(=O)N1CCC(OCOC)CC1)C(=O)NC(CC1CCCCC1)C(O)CC(C(=O)NCCCNc1n[nH]c(N)n1)C(C)C (stereo unspecified)	4.3	
Clc1cc2c(Cl)ccc(Cl)c2cc1Cl	5.81	
CCN(CC)P(=O)(N(CC)CC)N(CC)CC	2.53	
CNC(N)=S	-0.69	
O=C1c2cc([N+](=O)[O-])ccc2-c2ccc([N+](=O)[O-])cc21	2.84	
CC(C)CC(=O)Oc1ccccc1	3.18	
CC(NC(CCc1ccccc1)C(=O)O)C(=O)N1C(C(=O)O)CC2CCCC21 (stereo unspecified)	0.22	
Cc1ccc(CN)cc1	1.46	
COCCn1cnc2[nH]c(=O)n(C)c(=N)c21	-1.49	
O=[N+]([O-])c1cc(C2CCCCC2)c(O)c([N+](=O)[O-])c1	4.12	
Cc1ccc(C(=O)CS(=O)(=O)c2ccccc2)cc1	2.7	
BrCC1CO1 (stereo unspecified)	0.85	
OCc1ccc(F)cc1	1.36	
COC1=CC(=O)C(OC)=C(OC)C1=O	0.22	
CC1=CCC(C(C)(C)O)CC1 (stereo unspecified)	2.98	
CCCCCCOC(=O)c1ccccc1C(=O)OCCCCCC	6.82	
C=COCCn1cnc2[nH]c(=O)n(C)c(=N)c21	-0.78	
COC(=O)C(C#N)=Cc1ccco1	1.65	
OCC1CC(F)C(n2cnc3c(Cl)ncnc32)O1 (stereo unspecified)	0.32	

SMILES	logP	solubility
Cc1cn([C@H]2CC[C@@H](CO)O2)c(=O)[nH]c1=S	0.44	
Cc1nc2c(N)ncnc2n1C1OC(CO)CC1F (stereo unspecified)	0.1	
ClC=C1C2CC(C(Cl)C2(Cl)Cl)C1(CCl)CCl (stereo unspecified)	5.2	
CC1(C)Cc2cccc([N+](=O)[O-])c2O1	3.33	
CCCCOCCOCCOCCCC	1.92	
CC(C)COC(=O)c1cc(=O)[nH]c(=O)[nH]1	1.01	
CC(=O)OCCOCn1cnc2cnc(N)nc21	-0.61	
OCc1c2ccccc2cc2ccccc12	3.04	
N#CCCOc1cccc2ccccc12	2.8	
CC(=O)CC(C)C	1.31	
N#CCCN(N)c1nc2ccccc2o1	0.9	
Cc1cc(Br)cc(C)c1C#[N+][O-]	3.63	
NS(=O)(=O)c1cc(C2(O)NC(=O)c3ccccc32)ccc1Cl (stereo unspecified)	0.85	
OC[C@@H]1C[C@H](F)[C@H](n2cnc3cncnc32)O1	-0.4	
CC(C)CC=O		163 mM (≈ 14 mg/mL)
CC(C)OC(=O)c1cc(=O)[nH]c(=O)[nH]1	0.81	
COc1c(Cl)c(Cl)cc(Cl)c1Cl	4.68	
CC(O)COC(=O)[C@@H](N)Cc1ccc(O)c(O)c1 (stereo partly specified)	-0.49	
ClCC1(CCl)C2CC(Cl)(Cl)C1(C(Cl)Cl)CC2(Cl)Cl (stereo unspecified)	5.79	
O=C(O)CCCCn1nc2ccccc2n1	0.94	
Cn1cnc([N+](=O)[O-])c1I	1	
NC(=O)c1ccccc1NCCCO	0.7	
CC(=O)NC(C)C(=O)NC(CC(=O)O)C(=O)NC(C)(C)C (stereo not drawn) (Ac-Ala-Asp-NHtBu; configuration not given here)	-0.74	
CC(=O)OCN1Cc2ccccc2C1=O	0.99	
CN(C)CCCN1c2ccccc2Sc2ccccc21.Cl	2.94	

SMILES	logP	solubility
Cc1cc(=O)oc2cc(C3OC(C(=O)O)C(O)C(O)C3O)ccc12 (stereo unspecified)	-0.39	
OCc1cc(Cl)cc(Cl)c1	2.9	
CC(=O)c1c(C)c([N+](=O)[O-])c(C(C)(C)C)c([N+](=O)[O-])c1C	4.3	0.00646 mM (≈ 0.0019 mg/mL)
COCCOCCOC	-0.36	
NC(=O)CC[C@H](NS(=O)(=O)c1ccccc1)C(=O)O	0.33	
Cc1ccccc1OCCN(C)C	2.23	
C=CCCCCCCCC	5.7	
CCOC(=O)c1ccccc1S(=O)(=O)NC(=O)Nc1nc(Cl)cc(OC)n1	2.5	
CCCCN(C)N=O	1.08	
Clc1cccc(-c2c(Cl)ccc(Cl)c2Cl)c1Cl	6.04	
CCCCCCCC	5.18	
OCCC(F)(F)C(F)(F)C(F)(F)C(F)(F)F	3.3	
ClC1=C(Cl)C(Cl)(Cl)C(Cl)(Cl)C1(Cl)Cl		0.000291 mM (≈ 0.0001 mg/mL)
CNS(=O)(=O)c1ccc(Cl)cc1	1.92	
c1ccc2nc3c4ccccc4c4ccccc4c3cc2c1	5.66	
OCC(CO)(CO)CO	-1.69	
Nc1nc2c(ncn2COCCO)c(=O)[nH]1	-1.56	
CCCN(CC1CC1)c1c([N+](=O)[O-])cc(C(F)(F)F)cc1[N+](=O)[O-]	5.58	
COc1nc(NC(C)C)nc(NC(C)C)n1	2.99	
N#CC(C#N)=Cc1ccc(Br)o1	2.16	
CC(C)c1ccc(NC(=O)CN(CC(=O)O)CC(=O)O)cc1Br	-0.08	
CCCCOCCNc1ccc(Cl)cc1C(N)=O	2.99	
COC(=O)c1cc2ccccc2o1	2.53	
Brc1cc(Br)c(Oc2cc(Br)c(Br)c(Br)c2)cc1Br	7.4	
NC(Cc1ccc(O)c(O)c1)C(=O)OCC1CCCCO1 (stereo unspecified)	0.47	

Same assay, conditions: 20 °C

SMILES	solubility
CN(C)c1ccncc1	622 mM (≈ 76 mg/mL)
Nc1c(Cl)cc([N+](=O)[O-])cc1Cl	0.0338 mM (≈ 0.007 mg/mL)
C=CC(=O)NCO	6460 mM (≈ 653 mg/mL)
O=C(O)c1ccccn1	7800 mM (≈ 960 mg/mL)
CCOS(=O)(=O)OCC	45.4 mM (≈ 7 mg/mL)
CN(C)C(=N)N	18.6 mM (≈ 1.62 mg/mL)
CCC(Cl)Cl	23.9 mM (≈ 2.7 mg/mL)

Same assay, conditions: 22 °C

SMILES	solubility
Clc1c(Cl)c(Cl)c2ccccc2c1Cl	1.6e-05 mM (≈ 4.26e-06 mg/mL)

Same assay, conditions: 23 °C

SMILES	solubility
Clc1ccc(Cl)c(-c2ccc(Cl)c(Cl)c2)c1	0.000136 mM (≈ 3.97e-05 mg/mL)

Same assay, conditions: 23.0 °C

SMILES	log10 OH rate constant (cm³/molecule/s)
O=C1C=CC(=O)O1	-11.8
CCC(C)(O)CC(C)C (stereo unspecified)	-10.9
CCC/C=C/C=O	-10.4
O=C/C=C/c1ccccc1	-10.3

Same assay, conditions: 24 °C

SMILES	solubility
CC1CN(N=O)CC(C)O1 (stereo unspecified)	860 mM (≈ 124 mg/mL)
CCCCN(C)N=O	200 mM (≈ 23.2 mg/mL)

Same assay, conditions: 25 °C

SMILES	solubility
O=Nc1ccc2ccccc2c1O	2.89 mM (≈ 0.5 mg/mL)
NNc1ccccc1	1170 mM (≈ 127 mg/mL)
Cc1ccc(CO)cc1	63.1 mM (≈ 7.71 mg/mL)
c1ccc(OCC2CO2)cc1 (stereo unspecified)	16 mM (≈ 2.4 mg/mL)
CCCCCCOC(=O)c1ccccc1C(=O)OCCCCCC	0.000149 mM (≈ 5e-05 mg/mL)
CCCCCO[N+](=O)[O-]	2.7 mM (≈ 0.36 mg/mL)
CC1(C)Cc2cccc([N+](=O)[O-])c2O1	0.621 mM (≈ 0.12 mg/mL)
Clc1cc2c(oc3c(Cl)c(Cl)c(Cl)c(Cl)c32)c(Cl)c1Cl	3.3e-09 mM (≈ 1.35e-09 mg/mL)
CCCCCCC(C)O (racemic)	9.2 mM (≈ 1.2 mg/mL)
Clc1cc(Cl)c(Cl)cc1Cl	0.00276 mM (≈ 0.000595 mg/mL)
O=C(O)CCCOc1cc(Cl)c(Cl)cc1Cl	0.148 mM (≈ 0.042 mg/mL)
CC(=O)N(C)N=O	170 mM (≈ 17.4 mg/mL)
C=CCCCCCCCC	0.00406 mM (≈ 0.00057 mg/mL)
C#CCBr	125 mM (≈ 14.9 mg/mL)

Same assay, conditions: 25.0 °C

SMILES	log10 OH rate constant (cm³/molecule/s)
O=C(O)C(F)(F)F	-12.9
FC(F)C(F)(F)C(F)(F)C(F)F	-14.3
OCC(F)(F)C(F)(F)C(F)(F)F	-13
C=C(C)C(CC=O)CCC(C)=O (stereo unspecified)	-9.96
COCOC	-11.3
CCOS(=O)(=O)OCC	-11.7
CCC(CC)(CC)CC	-11.3
COC(F)(F)C(F)F	-12.7

Same assay, conditions: 26 °C

SMILES	solubility
Clc1cc2oc3cc(Cl)c(Cl)cc3c2cc1Cl	2.26e-06 mM (≈ 6.92e-07 mg/mL)

Same assay, conditions: 27.0 °C

SMILES	log10 OH rate constant (cm³/molecule/s)
CC(=O)N(C)C	-10.9
O=Cc1ccco1	-10.5
